Test results taken from the NIST ThermoML archive (doi:10.1016/j.jct.2013.05.040).

How the values were obtained:
[1] = xn = mol fraction of the nth substance listed; conditions: Liquid; for viscosity: Moving piston method; for mass density: Vibrating tube method
[2] = Liquid; for mass density: Vibrating tube method; for viscosity: 101.33 kPa, Moving piston method

CC [ethane] + CC(C)O
[1]
Conditions | mass density, 302.9 K [kg/m3] | mass density, 323.1 K [kg/m3] | viscosity, 302.9 K [mPa·s] | viscosity, 323.1 K [mPa·s]
910 kPa, x1 = 0.057 | – | 741.3 | – | 0.882
1030 kPa, x1 = 0.09 | 751.2 | – | 1.251 | –
1990 kPa, x1 = 0.141 | – | 716.3 | – | 0.663
2030 kPa, x1 = 0.199 | 718.5 | – | 0.919 | –
2970 kPa, x1 = 0.227 | – | 688.2 | – | 0.471
3040 kPa, x1 = 0.347 | 669.3 | – | 0.526 | –
3650 kPa, x1 = 0.47 | 623 | – | 0.246 | –
3970 kPa, x1 = 0.334 | – | 650.6 | – | 0.338
4940 kPa, x1 = 0.478 | – | 593.7 | – | 0.217
5620 kPa, x1 = 0.644 | – | 515.7 | – | 0.131

C [methane] + CC(C)O
[1]
Conditions | mass density, 302.8 K [kg/m3] | mass density, 323.1 K [kg/m3] | viscosity, 302.8 K [mPa·s] | viscosity, 323.1 K [mPa·s]
980 kPa, x1 = 0.018 | – | 754.5 | – | 0.908
1070 kPa, x1 = 0.019 | 771.2 | – | 1.523 | –
2020 kPa, x1 = 0.033 | – | 750 | – | 0.847
2080 kPa, x1 = 0.037 | 767.2 | – | 1.403 | –
3080 kPa, x1 = 0.049 | – | 745 | – | 0.8
3190 kPa, x1 = 0.055 | 761.2 | – | 1.339 | –
4080 kPa, x1 = 0.065 | – | 740.7 | – | 0.74
4080 kPa, x1 = 0.069 | 756.5 | – | 1.262 | –
4980 kPa, x1 = 0.078 | – | 736.9 | – | 0.717
5080 kPa, x1 = 0.085 | 753.3 | – | 1.208 | –
6040 kPa, x1 = 0.093 | – | 732.3 | – | 0.676
6060 kPa, x1 = 0.1 | 748.9 | – | 1.129 | –

CC(C)O [propan-2-ol]
mass density [kg/m3], [2]
Conditions | 302.9 K | 323 K
1000 kPa | – | 760.6
1040 kPa | 778.1 | –
2000 kPa | 778.9 | –
2020 kPa | – | 761.6
2990 kPa | 779.8 | –
3000 kPa | – | 762.7
4060 kPa | 780.8 | –
4070 kPa | – | 763.7
5000 kPa | – | 764.7
5010 kPa | 781.6 | –
6000 kPa | 782.5 | –
6010 kPa | – | 765.7
7020 kPa | 783.4 | 766.7
8010 kPa | – | 767.7
8020 kPa | 784.3 | –
9000 kPa | 785.1 | –
9010 kPa | – | 768.6
10000 kPa | 786 | –
10020 kPa | – | 769.6

[2]
Conditions | viscosity [mPa·s]
303.3 K | 1.716
323.2 K | 0.973

CC(C)O [propan-2-ol] + O=C=O
[1]
Conditions | mass density, 302.8 K [kg/m3] | mass density, 323.1 K [kg/m3] | viscosity, 302.8 K [mPa·s] | viscosity, 323.1 K [mPa·s]
980 kPa, x2 = 0.047 | – | 762.7 | – | 0.895
990 kPa, x2 = 0.062 | 783.8 | – | 1.365 | –
1960 kPa, x2 = 0.102 | – | 767.2 | – | 0.743
2000 kPa, x2 = 0.133 | 791 | – | 1.108 | –
2950 kPa, x2 = 0.164 | – | 771.5 | – | 0.657
2980 kPa, x2 = 0.212 | 798.5 | – | 0.895 | –
3930 kPa, x2 = 0.23 | – | 776.1 | – | 0.538
3970 kPa, x2 = 0.304 | 807.3 | – | 0.604 | –
4930 kPa, x2 = 0.305 | – | 780.3 | – | 0.394
5940 kPa, x2 = 0.391 | – | 783.7 | – | 0.321
